# Measured values: patent US20240299504A1, “COMPOSITIONS AND METHODS FOR TREATING ALZHEIMERS DISEASE” (priority 2023, published 2024)
# Assays:
# Assay type in all cases: in vivo, mouse
# [1] = system: proinflammatory cytokines and chemokines; assay: qRT-PCR of proinflammatory cytokines and chemokines in cortex and hippocampus; details: 6-MO 5×FAD female mice
# Experimental: (§1) Parathyroid hormone (human) was purchased from TOCRIS Bioscience (Cat #3011/1, Abingdon, United Kingdom). WT or 5×FAD mice (both male and female) were treated with PTH1-34 intermittently [once daily injection of hPTH1-34 (50 μg/Kg) or vehicle (0.9% sodium chloride) (as a control) by subcutaneous injection, starting at 2-MO, 5 days per week] as described previously. Mice were then subjected to behavioral tests and sacrificed for examinations of their bone and brain phenotypes at the indicated ages.
# Total RNA was extracted from cortex, hippocampus, or cultured astrocytes using a TRizol reagent (Invitrogen, cat #15596-026, Carlsbad, CA, USA) as previously described. Purified RNA (1-5 μg) was used for cDNA synthesis with the Revert Aid First Strand cDNA Synthesis Kit (Thermo Scientific, cat #K1621, Waltham, MA, USA). The cDNA products were subjected to subsequent quantitative PCR (qPCR) using the QuantiFast SYBR Green PCR Kit (QIA-GEN, cat #204057, Hilden, Germany) with a qPCR System (StepOne Plus). Each sample was repeated at least 3 times, and the mRNA level was normalized to GAPDH using the 2^−ΔΔCt method.
# [2] = system: 5×FAD mice; assay: Novel object recognition (NOR)
# Experimental: as §1
# Mice (female and male) at the age of ˜5-MO were subjected to behavioral studies. The experimental procedures are described as previously. […] The total arm entries and the number of tri-ads were recorded to quantify the percentage of spontaneous alternation. For novel object recognition (NOR), which tests mouse's memory ability for a novel object, 20 min were recorded to analyze the time to explore the old object vs. the new object of each mouse. […] During test trials, one of the objects was replaced with a new object and mice were free to explore for another 20 min, and the time spent exploring the new object and the old object was recorded. The discrimination index is quantified as the novelty object preference, which is the time spent exploring the new object minus the time exploring the old object over the total exploration time.
# [3] = system: p16Ink4a and p53; assay: Senescence markers in hippocampus (RT-PCR, Western blot)
# Experimental: as §1
# Total proteins from cortex, hippocampus, or cultured astrocytes were extracted using RIPA lysis buffer [50 mM Tris-HCl (pH7.5), 150 mM NaCl, 1 mM EDTA, 1% v/v NP-40, 0.1% SDS, 1% sodium deoxycholate supplemented with Protease Inhibitor Cocktail (Roche) and 1 mM PMSF] and analyzed by Western Blot. Lysates were cleared by centrifugation at 12,000 g for 15 min at 4° C. to remove debris and to obtain homogenates. Homogenates samples were resolved by SDS-PAGE (8˜15%) gels and then electroblotted onto nitrocellulose membranes (Cat #1620112, Bio-Rad Laboratories). […] After washing with TBST 3 times, antibody reactivity was detected by the Enhanced Chemiluminescence (ECL) detection system (Amersham Biosciences). Band density of proteins was normalized in relation to loading control and analyzed using NIH ImageJ software. […]
# [4] = system: 5×FAD mice; assay: Morris water maze (MWM)
# Experimental: Parathyroid hormone (human) was purchased from TOCRIS Bioscience (Cat #3011/1, Abingdon, United Kingdom). […] Mice were then subjected to behavioral tests and sacrificed for examinations of their bone and brain phenotypes at the indicated ages. For Morris water maze (MWM), a circular water tank (diameter of 120 cm) fulfilled with water and a 10 cm platform were used. Non-toxic white powder paint was added to water to make the surface opaque to hide the escape platform. The maze was virtually divided into 4 quadrants, one of which contained the platform 1 cm below the water surface as an escape platform. Mice were trained for 5 days, four trials per day with 20 min intervals between trials and 60 s per trial to locate the hidden platform. Then mice were left on the platform for 15 s to help them remember the location. On the 6th day, the escape platform was removed and mice were placed in water at the point farthest from the platform and recorded for 60 s. The swimming track was recorded using a video tracking system, and the time spent in each platform quadrant and the number of platform crossings were quantified. All behavioral trials were recorded by use of an overhead camera and analyzed by Etho Vision software (Etho Vision, Noldus). Mice were assigned and data were quantified, in a double-blind method.
structure (smiles),measurement,setting,value
CC[C@H](C)[C@H](NC(=O)[C@H](CCC(=O)O)NC(=O)[C@H](CO)NC(=O)[C@@H](NC(=O)[C@@H](N)CO)C(C)C)C(=O)N[C@@H](CCC(N)=O)C(=O)N[C@@H](CC(C)C)C(=O)N[C@@H](CCSC)C(=O)N[C@@H](Cc1cnc[nH]1)C(=O)N[C@@H](CC(N)=O)C(=O)N[C@@H](CC(C)C)C(=O)NCC(=O)N[C@@H](CCCCN)C(=O)N[C@@H](Cc1cnc[nH]1)C(=O)N[C@@H](CC(C)C)C(=O)N[C@@H](CC(N)=O)C(=O)N[C@@H](CO)C(=O)N[C@@H](CCSC)C(=O)N[C@@H](CCC(=O)O)C(=O)N[C@@H](CCCN=C(N)N)C(=O)N[C@H](C(=O)N[C@@H](CCC(=O)O)C(=O)N[C@@H](Cc1c[nH]c2ccccc12)C(=O)N[C@@H](CC(C)C)C(=O)N[C@@H](CCCN=C(N)N)C(=O)N[C@@H](CCCCN)C(=O)N[C@@H](CCCCN)C(=O)N[C@@H](CC(C)C)C(=O)N[C@@H](CCC(N)=O)C(=O)N[C@@H](CC(=O)O)C(=O)N[C@H](C(=O)N[C@@H](Cc1cnc[nH]1)C(=O)N[C@@H](CC(N)=O)C(=O)N[C@@H](Cc1ccccc1)C(=O)O)C(C)C)C(C)C [PTH1-34],expression of upregulated inflammatory cytokines or chemokines (RT-qPCR),[1]; cortex and hippocampus,largely brought down to nearly normal levels
same,"expression of GM-CSF, RANKL and OPG (RT-qPCR)",[1]; cortex,unaffected
same,"NOR, recognition of the novel object (discrimination index)","[2]; 5×FAD female mice ~5-MO vs 5×FAD Veh, 50 μg/Kg s.c. intermittent",improved recognition of the novel object
same,"NOR, cognitive function in novel object recognition",[2]; 5×FAD male mice ~5-MO vs Veh,Little to no improvement
same,p53 protein (Western blot),"[3]; hippocampus homogenates, 6-MO female 5×FAD mice",reduced
same,p16Ink4a and p53 transcripts (RT-PCR),"[3]; hippocampus, 6-MO 5×FAD female mice",great reduction
same,"MWM, latency to reach hidden platform during training",[4]; 5×FAD female mice ~5-MO vs 5×FAD Veh,faster learning of the hidden platform during MWM tests
same,"MWM, spatial memory (time in target quadrant, target zone crossovers)","[4]; 5×FAD female mice ~5-MO vs 5×FAD Veh, testing day",better spatial memory of the platform location
same,"MWM, spatial learning and memory",[4]; 5×FAD male mice ~5-MO vs Veh,Little to no improvement
